Measurements: patent US8703813B2, “Compound with spiro chiral carbon backbone, preparation method thereof, and pharmaceutical composition containing the same” (SNU R & DB Foundation, priority 2008, dated 2014)

How the values were obtained:
LXRβ = biological target: T1, LXRβ (Homo sapiens, UniProt P55055); assay: LXR antagonistic activity, GAL-hLXR luciferase transfection assay in CV-1 cells; type: cell-based; conditions: antagonism, together with agonist TO901317 (2.5 μM), 24 hours
T1 sequence (P55055 222-460 limits assumed): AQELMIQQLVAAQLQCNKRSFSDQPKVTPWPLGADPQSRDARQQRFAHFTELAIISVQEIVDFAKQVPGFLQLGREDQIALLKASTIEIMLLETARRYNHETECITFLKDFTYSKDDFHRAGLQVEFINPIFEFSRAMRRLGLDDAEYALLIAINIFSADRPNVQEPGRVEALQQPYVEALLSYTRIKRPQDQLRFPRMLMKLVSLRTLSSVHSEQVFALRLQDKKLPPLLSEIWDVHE
Method: (§1) Animal cell line CV-1 was used in transfection search. Cells were cultured in DMEM medium within a cell culture device containing 5% carbon dioxide at 37° C. The medium contained 10% FBS (fetal bovine serum), 100 U/ml penicillin, and 100 μg/ml streptomycin. On day 1 of the experiment, CV 1 cells were seeded in 96 well plates at 5,000 cells/well. On day 2, the seeded cells were transfected with plasmid expressing GAL-hLXR, plasmid expressing Luciferase gene, and plasmid expressing β-galactocidase by using a transfection reagent, Superfect (QIAGEN). After 16 hours, the transfected cells were treated with the compound 1 dissolved in dimethylsulfoxide (DMSO) by the concentrations, together with the agonist, TO901317 (2.5 μM). Cells treated with dimethylsulfoxide having the final concentration of 1% were used as a negative control group, and cells treated with T0901317 having the final concentration of 500 nM were used as a positive control group. The cells were cultured for 24 hours, and lysed by using a lysis buffer. […] The β-galactosidase activity, after adding of an ONPG reagent, was measured using an ELISA reader. The measured Luciferase value was corrected by activity value of β-galactosidase. […] In addition, the activities on various nuclear receptors were measured by using the same method, in order to measure selectivity for various nuclear receptors.

LXRα = biological target: T2, LXRα (Homo sapiens, UniProt Q13133); assay: as above; type: cell-based; conditions: antagonism, together with agonist TO901317 (2.5 μM), 24 hours
T2 sequence (Q13133 209-447 limits assumed): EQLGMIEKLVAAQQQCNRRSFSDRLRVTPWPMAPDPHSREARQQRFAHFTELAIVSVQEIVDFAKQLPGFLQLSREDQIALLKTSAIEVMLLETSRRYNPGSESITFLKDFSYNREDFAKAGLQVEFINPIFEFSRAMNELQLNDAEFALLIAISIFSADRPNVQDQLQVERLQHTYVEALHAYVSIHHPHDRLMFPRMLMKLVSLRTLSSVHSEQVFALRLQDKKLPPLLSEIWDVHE
Method: as §1

AML12 cells = assay: Gene expression regulation in liver cells (real-time PCR); type: cell-based; conditions: AML12 mouse liver cells, 1 μM alone or with 500 nM T0901317, 18 hours
Method: In order to verify efficacy of the developed liver-X-receptor antagonist, the function of regulating gene expression was identified in mouse liver cells and human liver cells. In the present experiment, mouse liver cells, AML 12 cells and human liver cells, and HepG2 cells were used. AML12 cells were cultured in DMEM medium within a cell incubator with 5% carbon dioxide at 37° C. The medium contained 10% fetal bovine serum (FBS), 100 U/ml penicillin, and 100 μg/ml streptomycin. On day 1 of the experiment, AML12 cells are seeded in 6 well plates. On day 2, when the cells were grown to 80% confluency, the medium was replaced by the DMEM medium not containing serum, and then three wells per treatment group were treated with TO901317 and the developed liver-X-receptor antagonist. […] The extracted RNAs were quantified, and 1 μg of the extracted RNAs per each sample were used in cDNA synthesis. […] The cDNAs synthesized for the real-time polymerase chain reaction were mixed with primer selective for ACC1 or Actine gene and QuantiTech Master Mix (QIAGEN). […] The Ct values per each treatment group were compared with the Ct values of the negative control group, and the differences in expression amount of genes were calculated. […]

other nuclear receptors = assay: Selectivity for various nuclear receptors, transfection assay; type: cell-based; conditions: same method as LXR assay
Method: as §1

[1] = Cytotoxicity, Cell Titer-Glo cell viability; type: cell-based, mouse; conditions: primary mouse spleen cells; mouse spleen cells, 16-18 hours
Method: (§2) Spleen cells of a mouse were used in measurement of cytotoxicity in […] cells. The spleen cells of the mouse were prepared as follows. The spleen from a 5˜6-week age mouse was finely minced, and only floating spleen cells were filtered through a net having a pore size of 100 μm. Erythrocytes mixed with the spleen cells were lysed by using erythrocyte lysis buffer, and then removed by centrifugation, precipitation and washing of the cells. The prepared spleen cells were seeded in 96-well plates at a concentration of 5×10^5 cells/well. Here, the spleen cells were treated with the compound of Formula 1 for measurement of toxicity according to the concentrations. The next day, the cells cultured for 16-18 hours were treated with Cell Titer-Glo Luminescent Cell Viability Assay (Promega), and after 10 minutes, cell viability was measured using the luminometer.

mouse spleen cells = assay: Cytotoxicity, Cell Titer-Glo cell viability; type: cell-based; conditions: mouse spleen cells vs LXR
Method: as §2

- IC50 (LXRβ): 0.0204 µM
- IC50 (LXRα): 0.0187 µM
- activity on the other nuclear receptors (other nuclear receptors): never showed the activity
SMILES: CC(C)=CCC/C(C)=C/[C@H]1CC(C)=C[C@@]2(C=C(CO)[C@@H]3CC(=O)C(C)=C[C@@H]3O2)O1 [Compound 1]
- expression of fatty acid biosynthesis genes SREBP1c, ACC, and FAS (AML12 cells): inhibited the expression
- IC50 [1]: 63 µM
- cytotoxicity IC50 compared with antagonistic concentration against LXR (mouse spleen cells): ≥ 1000 times
